The record followed here is patent publication US12478628B2, “Germ cell nuclear factor ligands and methods of use thereof” (Saint Louis University, priority 2020, dated 2025).

The structures appear in SMILES notation. Numbering of substitutions follows the chain as printed.

Assay [1] has as its target T1, GCNF LBD with NCoR ID1 corepressor peptide (Homo sapiens, UniProt Q15406).
T1 construct: Human GCNF (NR6A1) LBD (residues 248-480); made in house; host or cells: E. coli BL(21) DE3
T1 sequence (Q15406 248-480): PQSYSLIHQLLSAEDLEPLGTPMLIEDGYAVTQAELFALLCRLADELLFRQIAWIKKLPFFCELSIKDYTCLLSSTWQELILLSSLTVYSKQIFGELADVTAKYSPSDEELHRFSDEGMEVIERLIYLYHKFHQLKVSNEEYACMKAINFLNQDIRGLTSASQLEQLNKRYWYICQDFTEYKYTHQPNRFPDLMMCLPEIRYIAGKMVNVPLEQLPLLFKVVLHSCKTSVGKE
Briefly: FP ligand titration assay, NCoR ID1 peptide recruitment. The format is biochemical. To be noted: 20 μM GCNF LBD. As to the method: (§1) FP Assay. Fluorescence polarization (FP) assays were performed in triplicate on a 384-well Corning 3820 black opaque plate using a Biotek Synergy Neo2 HTS multimode microplate reader at excitation and emission wavelengths of 485 nm and 538 nm, respectively. Data were analyzed and plotted using GraphPad Prism as mean±SEM.
(§2) For the FP ligand titration assay, the aforementioned N-terminus fluorescein-tagged corepressor peptides were diluted to 500 nM from a 100 μM DMSO stock in the presence of 20 μM GCNF LBD and ligand concentration points 30, 20, 13, 9, 6, 4, 2.6, 1.7 and 0 μM in assay buffer containing 50 mM HEPES (pH 7.5), 50 mM KCl, 5 mM TCEP, 0.5 mM EDTA and 0.005% Tween20. The relative polarization was plotted against log of ligand concentration (μM) and the half maximal effective concentration (EC50) values were derived via sigmoidal fit.

The target in assay [2] is T2, chimeric Gal4-DBD human GCNF-LBD (Homo sapiens, UniProt Q15406).
T2 construct: expressed in transfected cells; host or cells: HEK293
T2 sequence (Q15406 249-480 limits assumed): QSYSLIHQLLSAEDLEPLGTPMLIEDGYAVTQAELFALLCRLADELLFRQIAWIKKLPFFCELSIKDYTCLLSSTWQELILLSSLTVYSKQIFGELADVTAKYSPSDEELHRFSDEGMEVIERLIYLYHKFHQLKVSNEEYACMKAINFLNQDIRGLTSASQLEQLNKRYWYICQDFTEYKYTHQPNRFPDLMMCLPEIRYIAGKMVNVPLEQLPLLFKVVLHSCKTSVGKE
Briefly: Luciferase cotransfection reporter assay in HEK293 cells. The class given is cell-based. The conditions noted are these: read-out: IC50, suppression of GCNF transactivation. As to the method: Cell Culture, Cotransfection Assays, and QPCR Analysis. Cotransfection assays were performed in HEK293 cells as previously described (Griffett et al., 2013; Wu et al., 2003; Savkur et al., 2003). Briefly, for dose-response cotransfection assays, a chimeric Gal4-DBD human GCNF-LBD in the pBIND vector was cotransfected with pGL4.35[luc2P/9XGAL4UAS/Hygro] vector (Promega). All cotransfections were normalized to renilla (pGL4.73; Dual-Glo luciferase reagent; Promega) and subsequently DMSO for analysis.
(In general: In a reporter assay the amount or activity of a reporter protein is the signal.)

The target of the next assay is T3, GCNF LBD Y336F (Homo sapiens, UniProt Q15406, Y336F).
T3 construct: Human GCNF (NR6A1) LBD (residues 248-480); hexahistidine tag with 3C protease site; made in house; host or cells: E. coli BL(21) DE3
T3 sequence (Q15406 248-480 Y336F): T1 sequence (Q15406 248-480) with Y89F
Briefly: DSF of GCNF LBD mutant Y336F. The conditions noted are these: 5 mM protein with 20 mM ligand as printed. The class given is binding. As for the experimental part: DSF Assay. GCNF LBD (5 μM) were mixed with 1× Sypro orange (Invitrogen) in DSF buffer (50 mM HEPES, 50 mM KCl, 5 mM TCEP, 0.5 mM EDTA, pH 7.5). […] Ten microliters (10 μL)×5 replicates for each sample were plated on 384-well PCR microplate. No protein control and no ligand references were also run simultaneously in 5 replicates on the same plate. A total of 450 compounds (Life Chemicals) previously selected from a nuclear-receptor-biased library targeting REV-ERB were analyzed. Thermal stability was assessed on a Quantstudio 6 instrument (Biosystems) by ramping the temperature from 25° C. to 95° C. at 0.05° C./s and protein melt shifts were subsequently quantified by Boltzmann-derived melting temperature (Tm) using the Protein Thermal Shift (ThermoFisher) software. Positive hits were identified when a thermal shift (ΔTm) of at least 2° C. was observed.

The target of another assay is T4, GCNF LBD (Homo sapiens, UniProt Q15406).
T4 construct: Human GCNF (NR6A1) LBD (residues 248-480); made in house; host or cells: E. coli BL(21) DE3
T4 sequence (Q15406 248-480): T1 sequence (Q15406 248-480)
Briefly: Solution 1H NMR methyl peak perturbation of GCNF LBD. The format is binding. To be noted: 1.05:1 molar equivalence of ligand; seven shielded resonances monitored. As for the experimental part:
Solution NMR spectroscopy. One hundred micromolar (100 μM) of GCNF LBD with 10% D2O were mixed with either 0.5% DMSO-d6 or 1.05:1 molar equivalence of ligand and transferred to a Shigemi tube. ^1H NMR data were acquired at 298 K on a 700 MHz Bruker Avance II HDTM NMR instrument equipped with a QCI cryoprobe. For each spectrum, 1024 transients were collected into 32,000 data points, with a spectral width of 16.7 kHz. Data were analyzed using Topspin 3.5 pl 7.

The subject of assay [3] is GCNF single point mutations F284A, Y336F and F361A with SMRT ID2 peptide. Briefly: FP SMRT ID2 recruitment with GCNF point mutants. The format is biochemical, human. To be noted: Y336F and F361A vs wild-type. As to the method: as §1, §2
Assay [4] addresses T5, GCNF LBD with SMRT ID2 corepressor peptide (Homo sapiens, UniProt Q15406).
T5 construct: Human GCNF (NR6A1) LBD (residues 248-480); made in house; host or cells: E. coli BL(21) DE3
Briefly: FP ligand titration assay, SMRT ID2 peptide recruitment. The conditions noted are these: 20 μM GCNF LBD. The class given is biochemical. As for the experimental part:
as §1, §2

One may read the IC50 as the concentration needed to halve the response being measured.

T5 sequence (Q9Y618 2332-2354 partner limits assumed, one chain of several): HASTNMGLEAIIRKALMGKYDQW

Turning to `Cc1ccc(-n2ncc3c(N4CCOCC4)nc(NCc4ccco4)nc32)cc1` [Ligand 34, N-[(furan-2-yl)methyl]-1-(4-methylphenyl)-4-(morpholin-4-yl)-1H-pyrazolo[3,4-d]pyrimidin-6-amine], the “effect on recruitment of NCoR ID1 to GCNF” value in assay [1] was “did not substantially alter”. For the same molecule, the IC50 in assay [2] came to 1100 nM. In addition, at GCNF LBD Y336F, the “effect of substitution Y336F on ligand binding (DSF)” value is “substantially affect the binding”. Further, at GCNF LBD, the “shielded methyl 1H NMR resonances of GCNF LBD perturbed” value is given as 5 of 7. Also, the “SMRT-ID2 peptide recruitment by GCNF mutants” value in assay [3] is reported as “substantially weakened corepressor peptide recruitment”. Besides, the “effect on recruitment of SMRT ID2 to GCNF” value in assay [4] is “increased the recruitment”.

For `O=C(Cn1cc(S(=O)(=O)c2ccccc2)c2ccccc21)N1CCc2ccccc21` [Ligand 80, 2-[3-(benzenesulfonyl)-1H-indol-1-yl]-1-(2,3-dihydro-1H-indol-1-yl)ethan-1-one], in assay [1], the “effect on recruitment of NCoR ID1 to GCNF” value was “did not substantially alter”. In addition, the half-maximal inhibitory concentration (IC50) in assay [2] was found to be 317 nM. Moreover, on GCNF LBD Y336F, the “effect of substitution Y336F on ligand binding (DSF)” value is “only F361A significantly affect the binding of 80”. Also, the “shielded methyl 1H NMR resonances of GCNF LBD perturbed” value at GCNF LBD is 5 out of 7. For the same molecule, the “SMRT-ID2 peptide recruitment by GCNF mutants” value in assay [3] is “does not affect recruitment”. The “effect on recruitment of SMRT ID2 to GCNF” value in assay [4] is reported as “but not ligand 80, increased the recruitment of SMRT ID2”.
